Experimental data as given in ChEMBL document CHEMBL3351410, “The discovery of avanafil for the treatment of erectile dysfunction: a novel pyrimidine-5-carboxamide derivative as a potent and highly selective phosphodiesterase 5 inhibitor” (Bioorg Med Chem Lett, 2014).
pIC50: −log10 of the molar value.

How the values were obtained:
[1] = molecular target: cGMP-specific 3',5'-cyclic phosphodiesterase (Canis lupus familiaris, UniProt O77746); test: Inhibition of dog lungs PDE5 using [3H]cGMP as substrate after 30 mins by scintillation counting analysis
[2] = system: Corpus cavernosum; test: Induction of relaxant effect in rabbit corpus cavernosum after 30 mins; assay type: functional, Oryctolagus cuniculus
[3] = Selectivity for dog lungs PDE5 over light-activated bovine retina PDE6
[4] = organism: Homo sapiens; test: Selectivity for PDE5 (unknown origin) over PDE11 (unknown origin)
[5] = organism: Homo sapiens; test: Selectivity for PDE5 (unknown origin) over PDE6 (unknown origin)
[6] = organism: Homo sapiens; test: Selectivity for PDE5 (unknown origin) over PDE10 (unknown origin)
[7] = organism: Homo sapiens; test: Selectivity for PDE5 (unknown origin) over PDE4 (unknown origin)
[8] = organism: Homo sapiens; test: Selectivity for PDE5 (unknown origin) over PDE9 (unknown origin)
[9] = organism: Homo sapiens; test: Selectivity for PDE5 (unknown origin) over PDE8 (unknown origin)
[10] = organism: Homo sapiens; test: Selectivity for PDE5 (unknown origin) over PDE3 (unknown origin)
[11] = organism: Homo sapiens; test: Selectivity for PDE5 (unknown origin) over PDE1 (unknown origin)
[12] = organism: Homo sapiens; test: Selectivity for PDE5 (unknown origin) over PDE2 (unknown origin)
[13] = organism: Homo sapiens; test: Selectivity for PDE5 (unknown origin) over PDE7 (unknown origin)

SMILES | pIC50 [1] | Selectivity ratio [3] | further results
COc1ccc(CNc2nc(N3CCC[C@H]3CO)ncc2C(=O)NCC2CN(C)CCO2)cc1Cl (some centres not stated) | 8.21 | 2000 | EC30 [2]: 2.7 nM
COc1ccc(CNc2nc(OCc3ccccn3)ncc2C(=O)OCc2ccccn2)cc1Cl | 8.68 | 1000 | 
CN1CC(=O)N2[C@H](c3ccc4c(c3)OCO4)c3[nH]c4ccccc4c3C[C@@H]2C1=O |  |  | Selectivity ratio [4]: 25; Selectivity ratio [5]: 550
COc1ccc(CNc2nc(N3Cc4ccccc4C[C@H]3CO)ncc2C(=O)NCc2ccccn2)cc1Cl | 8.19 |  | 
COc1ccc(CNc2nc(OCc3ccccn3)ncc2C(=O)N(C)Cc2ccccn2)cc1Cl | 7.07 |  | 
COc1ccc(CNc2nc(N3CCC[C@H]3CO)ncc2C(=O)NCc2ccccn2)cc1Cl | 8.92 | 4300 | EC30 [2]: 22 nM
COc1ccc(CNc2nc(N3CCC[C@@H]3CO)ncc2C(=O)NCc2ncccn2)cc1Cl | 7.44 |  | 
COc1ccc(CNc2nc(N3CCC[C@H]3CO)ncc2C(=O)NCc2ncccn2)cc1Cl [AVANAFIL] |  | 4000 | Selectivity ratio [6]: > 1000; EC30 [2]: 2.1 nM; Selectivity ratio [7]: > 1000; Selectivity ratio [4]: > 19200; Selectivity ratio [8]: > 1000; Selectivity ratio [9]: > 1000; Selectivity ratio [10]: > 1000; Selectivity ratio [5]: 121; Selectivity ratio [11]: > 1000; Selectivity ratio [12]: > 1000; Selectivity ratio [13]: > 1000
COc1ccc(CNc2nc(OCc3ccccn3)ncc2C(=O)NCc2ccccn2)cc1Cl | 8.57 | 480 | 
COc1ccc(CNc2nc(OCc3ccccn3)ncc2C(=O)NCCCO)cc1Cl | 7.89 | 420 | 
COc1ccc(CNc2nc(OCc3ccccn3)ncc2C(=O)OCc2ncccn2)cc1Cl | 8.38 | 640 | 
COCCCNC(=O)c1cnc(OCc2ccccn2)nc1NCc1ccc(OC)c(Cl)c1 | 7.82 | 240 | 
CCOC(=O)c1cnc(OCc2ccccn2)nc1NCc1ccc(OC)c(Cl)c1 | 8.26 |  | EC30 [2]: 37 nM
CCCc1nn(C)c2c(=O)[nH]c(-c3cc(S(=O)(=O)N4CCN(C)CC4)ccc3OCC)nc12 |  |  | Selectivity ratio [5]: 16
COc1ccc(CNc2nc(N3CCC[C@H]3CO)ncc2C(=O)N[C@H]2CC[C@H](O)CC2)cc1Cl | 8.74 | 5600 | EC30 [2]: >100 nM
COc1ccc(CNc2nc(N3CCCC(CO)C3)ncc2C(=O)NCc2ncccn2)cc1Cl (configuration not stated) | 7.20 |  | 
COc1ccc(CNc2nc(OCc3ccccn3)ncc2C(=O)NCCN2CCOCC2)cc1Cl | 8.25 | 630 | 
COc1ccc(CNc2nc(OCc3ccccn3)ncc2C(=O)NCCCCO)cc1Cl | 7.92 | 480 | 
COc1ccc(CNc2nc(N(C)CCO)ncc2C(=O)NCc2ccccn2)cc1Cl | 7.49 |  | 
COc1ccc(CNc2nc(N3CCC(O)CC3)ncc2C(=O)NCc2ccccn2)cc1Cl | 7.23 |  | 
COc1ccc(CNc2nc(N3CCC[C@H]3CO)ncc2C(=O)N[C@H]2CC[C@H](OC)CC2)cc1Cl | 9.05 | 7700 | EC30 [2]: 6.8 nM
COc1ccc(CNc2nc(OCc3ccccn3)ncc2C(=O)NCc2ncccn2)cc1Cl | 7.92 | 720 | 
COc1ccc(CNc2nc(OCc3ccccn3)ncc2C(=O)N[C@H]2CC[C@H](O)CC2)cc1Cl | 8.46 | 510 | 
COc1ccc(CNc2nc(N3CCOC(CO)C3)ncc2C(=O)NCc2ccccn2)cc1Cl (configuration not stated) | 7.49 |  | 
COc1ccc(CNc2nc(N3CCOC[C@H]3CO)ncc2C(=O)NCc2ncccn2)cc1Cl | < 7.00 |  | 
COc1ccc(CNc2nc(N3CCCCC3CO)ncc2C(=O)NCc2ccccn2)cc1Cl (configuration not stated) | 7.27 |  | 
COc1ccc(CNc2nc(N3CCC[C@H]3CO)ncc2C(=O)NCCCO)cc1Cl | 8.18 | 1500 | EC30 [2]: 4.9 nM
CCCc1nc(C)c2c(=O)nc(-c3cc(S(=O)(=O)N4CCN(CC)CC4)ccc3OCC)[nH]n12 |  |  | Selectivity ratio [5]: 21
COc1ccc(CN=c2[nH]c(N3CCC[C@H]3CO)ncc2C(=O)NCc2ncccn2)cc1Cl [AVANAFIL] | 8.28 |  | 
COc1ccc(CNc2nc(N3CCC(CO)C3)ncc2C(=O)NCc2ncccn2)cc1Cl (configuration not stated) | 7.60 |  | 
